# In US6623933B1 (priority 1999, dated 2003):
# Counter-ions that a name gives are not always drawn. Like-named read-outs stand apart in the source and are kept apart here.
# Tests used:
# NR1011/NR2A [1] = target: T1, NR1011/NR2A (Rattus norvegicus, UniProt P35439+Q00959); set-up: agonist Emax: dose or concentration left out as unconfirmed
# NR1100/NR2A = NR1100/NR2A (Rattus norvegicus, UniProt P35439+Q00959); set-up: agonist nHill / agonist Emax: dose or concentration left out as unconfirmed
# GluR1 AMPA receptor = target: T2, GluR1 AMPA receptor (Rattus norvegicus, UniProt P19490); experiment: Kainate-induced currents, Xenopus oocytes injected with GluR1 cRNA; assay type: cell-based
# T2 construct: expressed in transfected cells; host or cells: Xenopus oocytes injected with GluR1 cRNA
# Text: (§1) Plasmids were obtained from the following individuals: Dr. Suzanne Zukin (Albert Einstein College of Medicine, Bronx, N.Y.), NR1100; Dr. Shigetada Nakanishi (Kyoto University Faculty of Medicine, Kyoto, Japan), NR2A; Dr. Stephen Heinemann (Salk Institute, San Diego, Calif.), GluR1 (flop), GluR3 (flop), and GluR6. Plasmids were linearized with BamH1 (NR1100), XhoI (NR2A, GluR1, GluR3) or XbaI (GluR6) prior to in vitro transcription with T3 (GluR1, GluR3, GluR6) or T7 (NR1100, NR2A) RNA polymerase using the Message Machine kit (Ambion, Austin, Tex.). […] RNA solutions (50-70 nl) were injected into oocytes for delivery of NR1100 (5 ng), NR1100:NR2A (1:10 ng), GluR1 (5 ng). GluR3 (5 ng), or GluR6 (20 ng). Oocytes were incubated in ND96 at 18-20° C. for 3-7 days prior to electrophysiological recording.
# (§2) Steroid solutions were prepared as 70-100 mM frozen stocks in dimethyl sulfoxide (DMSO). The final DMSO concentration of all recording solutions was between 0.1% to 0.5% and was constant within an experiment.
# (§3) Perfusion control and data acquisition were carried out using an automated oocyte electrophysiology workstation that was developed for the rapid collection of concentration-response data and real-time waveform analysis (Yaghoubi et al., Soc. Neurosci. Abstr. 20: 1109 (1995)). This system is implemented on a Macintosh IIci computer (Apple Computer, Cupertino, Calif.) equipped with MacA-DIOS II data acquisition and control hardware (GW Instruments, Somerville, Mass.). Drug application is controlled by the computer through a series of valves, using custom-written software based on the SuperScope II development environment, improving the efficiency and reproducibility of data collection. Experiments were carried out using an Axoclamp-2A voltage clamp amplifier (Axon Instruments, Foster City, Calif.) in two-electrode voltage clamp mode. Intracellular microelectrodes (1-3 MΩ) were filled with 3 M KCl. […] Membrane potential was clamped at −60 to −70 mV and stepped to −100 mV at the start of data acquisition unless otherwise stated. […] Current and voltage recordings were digitized at 100 Hz for analysis. GluR6 injected oocytes were treated for 10 min with 10 μg/ml concanavalin A to prevent fast desensitization.
# (§4) Results are expressed as mean±S.E.M. Statistical comparisons were made using Student's t-test.
# NR1100 NMDA receptor = target: T3, NR1100 NMDA receptor (Rattus norvegicus, UniProt P35439); experiment: NMDA-induced currents, Xenopus oocytes injected with NR1100 cRNA only, Example 1; assay type: cell-based
# T3 construct: expressed in transfected cells; host or cells: Xenopus oocytes injected with NR1100 cRNA only
# Text: as §1, §2, §3, §4
# NR1/NR2B (NR1100) = NR1/NR2B (NR1100) (Rattus norvegicus, UniProt P35439+Q00960)
# Text: Plasmids containing the NR1100 (NR1G) and NR2A cDNA inserts were kindly provided by Dr. Nakanishi (Kyoto University Faculty of Medicine, Kyoto, Japan). Plasmids containing the NR2B, NR2C and NR2D cDNA inserts were kindly provided by Dr. P. Seeburg (Heidelberg University, Heidelberg, Germany). Plasmids were linearized with appropriate restriction enzyme prior to in vitro transcription using the Message Machine kit (Ambion, Inc., Austin, Tex.).
# Female, oocyte-positive Xenopus laevis frogs were purchased from Xenopus I (Dexter, Mich.). […] Oocytes were injected with 50 nL of RNA solutions using an electronic microinjector (Drummond Inc., Broomall, Pa.). […] The injected oocytes were used for experiments following 1-5 days of incubation in Barth's solution at 18-20° C.
# The microelectrodes were fabricated from borosilicate glass capillaries with a programmed puller (Sutter Instrument Co., Calif.). Microelectrode resistance was 1-3 MΩ_when filled with 3 M KCl.
# Except where otherwise stated, oocytes were clamped at a holding potential of −70 mV during data acquisition. The membrane current was filtered at 500 Hz and sampled at 100 Hz. Drugs were applied using a gravity-driven external perfusion system. The working volume of the recording chamber was 30 μl and the rate of the perfusion was 50 μl/sec. The drug application lasted 10 sec and was followed by 60 s wash. Data acquisition and external perfusion were controlled using custom-written software implemented in the SuperScope II development environment (GW Instruments, Mass.). All experiments were performed at room temperature of 22-24° C. Peak or steady-state current measurements were normalized and expressed as a fraction of the peak or steady-state control current measurements, which were performed before and after application of every single concentration of agonists or steroids.
# Concentration-response data were analyzed by nonlinear regress ion using the logistic equation Response=Emax/(1+(EC50/c)^nH), where c is concentration, Emaxis the maximum response, nHis the Hill coefficient. The data are presented as mean±SEM. EC50values are averaged as logarithms (De Lean et al., Am. J. Physiol. 235: E97-E102 (1978))±the SEM of the log EC50. […] The pooled data were simultaneously fitted to the logistic equation, either with Emax and EC50 constrained to be identical in the presence and absence of PS, or allowing one or both to vary independently. […] This was regarded as indicating a significant treatment effect of PS, but the change in EC50and Emaxwas not considered significant. […] No attempt was made to test the generally small changes in nHfor statistical significance.
# NR1111/NR2A = NR1111/NR2A (Rattus norvegicus, UniProt P35439+Q00959); set-up: agonist Emax: dose or concentration left out as unconfirmed
# GluR6 kainate receptor = target: T4, GluR6 kainate receptor (Rattus norvegicus, UniProt P42260); experiment: Kainate-induced currents, Xenopus oocytes injected with GluR6 cRNA; assay type: cell-based
# T4 construct: expressed in transfected cells; host or cells: Xenopus oocytes injected with GluR6 cRNA (concanavalin A treated)
# Text: as §1, §2, §3, §4
# NR1000/NR2A = NR1000/NR2A (Rattus norvegicus, UniProt P35439+Q00959); set-up: agonist Emax: dose or concentration left out as unconfirmed
# NR1011/NR2A [2] = target: T1, NR1011/NR2A; experiment: NMDA-induced currents of NR1 splice variants, Xenopus oocytes, Example 4; assay type: cell-based; set-up: expressed in transfected cells; host or cells: Xenopus oocytes injected with NR1011 and NR2A mRNA; conditions: for maximum relative current (MRC) / percentage potentiation of the maximum NMDA response / NMDA nH / EC50: NR1011/2A; for EC50: read-out: NMDA EC50
# Protocol: Overnight cultures (500 ml) of transformed bacterial cells were prepared in order to grow sufficient quantities for maxiprep isolation of the plasmid CDNA. Maxipreps were done using a Sorvall RC-5B ultracentrifuge, Qiagen columns and cDNA was quantitated with spectrophotometry (OD260 and OD260/ OD280 ratio). The resulting plasmid cDNA was linearized by digestion with an appropriate restriction enzyme that cleaves distal to the cDNA insert (XhoI for NR2A or NotI for NR1100, NR1000, NR1111, NR1011, NR1101, NR1001). […] The samples were stored at −20° C. until use.
# In vitro transcription was performed using the Ambion mMessage mMachine kit with T7 (NR1100, NR1000, NR1111, NR1011, NR1101, NR1001) RNA polymerase. The reaction was assembled on ice and allowed to incubate at 37° C. for 1-2 hr. The resulting mRNA was precipitated (reaction termination) using lithium chloride/5 mM EDTA solution and dissolved in RNase-free H2O. The concentration (OD260) and OD260/OD280 ratio (should be more than 1.5) was determined by spectrophotometer. The yield of mRNA was generally 15-30 μg. mRNA was stored at −80° C. until use.
# Intracellular recording microelectrodes were fabricated from 100 μl borosilicate glass disposable micropipettes using a 2-step protocol on a standard horizontal Flaming-Brown micropipette puller.
# T4 sequence (P42260 32-908): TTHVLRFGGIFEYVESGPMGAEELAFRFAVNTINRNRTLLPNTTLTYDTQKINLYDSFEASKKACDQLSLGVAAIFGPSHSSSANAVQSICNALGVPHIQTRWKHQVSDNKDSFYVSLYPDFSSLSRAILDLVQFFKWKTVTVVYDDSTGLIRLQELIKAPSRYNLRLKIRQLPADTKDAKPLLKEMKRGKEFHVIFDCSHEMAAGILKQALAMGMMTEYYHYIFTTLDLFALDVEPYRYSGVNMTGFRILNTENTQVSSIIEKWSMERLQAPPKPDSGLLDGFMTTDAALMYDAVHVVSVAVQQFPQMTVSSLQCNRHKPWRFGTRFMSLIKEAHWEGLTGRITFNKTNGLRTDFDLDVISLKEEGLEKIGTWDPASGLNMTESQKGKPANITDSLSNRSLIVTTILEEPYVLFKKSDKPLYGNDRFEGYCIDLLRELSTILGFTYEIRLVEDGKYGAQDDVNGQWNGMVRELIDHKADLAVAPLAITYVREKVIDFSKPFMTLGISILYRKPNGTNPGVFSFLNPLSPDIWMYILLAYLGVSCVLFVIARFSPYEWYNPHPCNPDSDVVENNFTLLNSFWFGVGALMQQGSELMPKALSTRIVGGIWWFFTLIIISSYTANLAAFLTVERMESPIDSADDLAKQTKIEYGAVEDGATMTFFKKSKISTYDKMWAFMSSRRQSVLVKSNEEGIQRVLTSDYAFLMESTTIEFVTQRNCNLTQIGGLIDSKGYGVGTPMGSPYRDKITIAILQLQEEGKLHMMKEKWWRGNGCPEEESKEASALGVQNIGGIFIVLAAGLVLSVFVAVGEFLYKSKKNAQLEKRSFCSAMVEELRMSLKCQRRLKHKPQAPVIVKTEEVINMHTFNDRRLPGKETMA
# NR1/NR2B (NR1100), sequence (Q00960 27-1482, other chains not shown): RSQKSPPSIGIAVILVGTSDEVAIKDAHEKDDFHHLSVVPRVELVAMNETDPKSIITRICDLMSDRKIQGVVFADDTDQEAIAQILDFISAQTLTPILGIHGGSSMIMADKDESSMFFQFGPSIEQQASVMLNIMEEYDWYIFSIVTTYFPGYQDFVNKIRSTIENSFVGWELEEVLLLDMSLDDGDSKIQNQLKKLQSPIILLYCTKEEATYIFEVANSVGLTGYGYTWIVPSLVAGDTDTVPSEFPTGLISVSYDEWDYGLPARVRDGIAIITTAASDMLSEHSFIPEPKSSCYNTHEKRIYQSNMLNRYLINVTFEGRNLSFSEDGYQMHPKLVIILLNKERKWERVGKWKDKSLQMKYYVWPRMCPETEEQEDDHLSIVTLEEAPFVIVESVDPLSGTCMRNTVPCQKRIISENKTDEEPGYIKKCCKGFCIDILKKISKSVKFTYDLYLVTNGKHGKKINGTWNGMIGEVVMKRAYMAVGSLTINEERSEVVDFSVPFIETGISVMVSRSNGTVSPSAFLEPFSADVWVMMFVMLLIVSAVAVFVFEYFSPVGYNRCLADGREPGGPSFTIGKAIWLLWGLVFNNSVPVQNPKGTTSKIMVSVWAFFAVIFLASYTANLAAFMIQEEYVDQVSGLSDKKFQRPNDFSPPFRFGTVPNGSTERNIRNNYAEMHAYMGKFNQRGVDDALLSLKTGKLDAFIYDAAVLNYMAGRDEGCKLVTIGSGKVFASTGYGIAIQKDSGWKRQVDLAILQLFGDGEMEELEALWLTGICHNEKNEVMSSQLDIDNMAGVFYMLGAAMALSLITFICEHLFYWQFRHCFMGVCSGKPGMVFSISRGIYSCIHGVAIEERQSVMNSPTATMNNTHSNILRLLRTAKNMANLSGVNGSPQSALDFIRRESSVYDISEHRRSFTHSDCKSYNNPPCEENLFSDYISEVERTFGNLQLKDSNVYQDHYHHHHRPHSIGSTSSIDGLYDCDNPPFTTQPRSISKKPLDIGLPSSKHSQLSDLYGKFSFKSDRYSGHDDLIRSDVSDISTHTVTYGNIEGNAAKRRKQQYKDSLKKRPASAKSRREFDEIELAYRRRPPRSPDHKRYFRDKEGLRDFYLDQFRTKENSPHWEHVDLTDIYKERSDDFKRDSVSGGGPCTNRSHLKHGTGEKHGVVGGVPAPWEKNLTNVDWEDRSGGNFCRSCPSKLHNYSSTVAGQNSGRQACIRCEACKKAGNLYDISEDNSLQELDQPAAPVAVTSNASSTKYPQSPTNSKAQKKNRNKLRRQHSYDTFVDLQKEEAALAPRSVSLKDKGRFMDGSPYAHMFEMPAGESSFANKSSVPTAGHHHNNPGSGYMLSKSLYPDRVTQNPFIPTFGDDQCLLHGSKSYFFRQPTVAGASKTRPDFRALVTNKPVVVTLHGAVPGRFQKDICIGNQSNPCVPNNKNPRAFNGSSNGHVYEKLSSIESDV
# T2 sequence (P19490 19-907): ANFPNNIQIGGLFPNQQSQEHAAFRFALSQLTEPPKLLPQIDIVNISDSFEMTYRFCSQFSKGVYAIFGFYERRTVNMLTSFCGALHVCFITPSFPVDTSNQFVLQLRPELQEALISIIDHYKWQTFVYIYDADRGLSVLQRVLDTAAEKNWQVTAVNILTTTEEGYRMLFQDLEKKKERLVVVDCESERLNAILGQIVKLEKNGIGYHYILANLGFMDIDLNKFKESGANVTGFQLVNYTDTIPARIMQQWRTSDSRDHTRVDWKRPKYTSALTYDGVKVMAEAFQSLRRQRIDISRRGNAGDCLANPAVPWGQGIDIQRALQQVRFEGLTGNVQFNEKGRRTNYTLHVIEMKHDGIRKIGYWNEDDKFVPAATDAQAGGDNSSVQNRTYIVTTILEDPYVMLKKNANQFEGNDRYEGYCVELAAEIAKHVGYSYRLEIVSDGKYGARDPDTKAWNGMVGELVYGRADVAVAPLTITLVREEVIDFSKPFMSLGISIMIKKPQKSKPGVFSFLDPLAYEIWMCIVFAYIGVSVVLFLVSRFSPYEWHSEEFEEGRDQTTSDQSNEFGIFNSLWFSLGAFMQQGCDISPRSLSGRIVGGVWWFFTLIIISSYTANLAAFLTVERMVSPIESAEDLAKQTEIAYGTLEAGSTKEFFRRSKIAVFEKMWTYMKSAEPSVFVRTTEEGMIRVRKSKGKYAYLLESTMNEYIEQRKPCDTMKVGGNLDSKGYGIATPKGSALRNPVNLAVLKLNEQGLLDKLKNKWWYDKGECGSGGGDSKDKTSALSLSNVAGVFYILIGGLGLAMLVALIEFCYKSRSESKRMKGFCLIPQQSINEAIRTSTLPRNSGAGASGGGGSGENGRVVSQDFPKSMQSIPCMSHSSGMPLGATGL
# T1 sequence (Q00959 23-1464, other chains not shown): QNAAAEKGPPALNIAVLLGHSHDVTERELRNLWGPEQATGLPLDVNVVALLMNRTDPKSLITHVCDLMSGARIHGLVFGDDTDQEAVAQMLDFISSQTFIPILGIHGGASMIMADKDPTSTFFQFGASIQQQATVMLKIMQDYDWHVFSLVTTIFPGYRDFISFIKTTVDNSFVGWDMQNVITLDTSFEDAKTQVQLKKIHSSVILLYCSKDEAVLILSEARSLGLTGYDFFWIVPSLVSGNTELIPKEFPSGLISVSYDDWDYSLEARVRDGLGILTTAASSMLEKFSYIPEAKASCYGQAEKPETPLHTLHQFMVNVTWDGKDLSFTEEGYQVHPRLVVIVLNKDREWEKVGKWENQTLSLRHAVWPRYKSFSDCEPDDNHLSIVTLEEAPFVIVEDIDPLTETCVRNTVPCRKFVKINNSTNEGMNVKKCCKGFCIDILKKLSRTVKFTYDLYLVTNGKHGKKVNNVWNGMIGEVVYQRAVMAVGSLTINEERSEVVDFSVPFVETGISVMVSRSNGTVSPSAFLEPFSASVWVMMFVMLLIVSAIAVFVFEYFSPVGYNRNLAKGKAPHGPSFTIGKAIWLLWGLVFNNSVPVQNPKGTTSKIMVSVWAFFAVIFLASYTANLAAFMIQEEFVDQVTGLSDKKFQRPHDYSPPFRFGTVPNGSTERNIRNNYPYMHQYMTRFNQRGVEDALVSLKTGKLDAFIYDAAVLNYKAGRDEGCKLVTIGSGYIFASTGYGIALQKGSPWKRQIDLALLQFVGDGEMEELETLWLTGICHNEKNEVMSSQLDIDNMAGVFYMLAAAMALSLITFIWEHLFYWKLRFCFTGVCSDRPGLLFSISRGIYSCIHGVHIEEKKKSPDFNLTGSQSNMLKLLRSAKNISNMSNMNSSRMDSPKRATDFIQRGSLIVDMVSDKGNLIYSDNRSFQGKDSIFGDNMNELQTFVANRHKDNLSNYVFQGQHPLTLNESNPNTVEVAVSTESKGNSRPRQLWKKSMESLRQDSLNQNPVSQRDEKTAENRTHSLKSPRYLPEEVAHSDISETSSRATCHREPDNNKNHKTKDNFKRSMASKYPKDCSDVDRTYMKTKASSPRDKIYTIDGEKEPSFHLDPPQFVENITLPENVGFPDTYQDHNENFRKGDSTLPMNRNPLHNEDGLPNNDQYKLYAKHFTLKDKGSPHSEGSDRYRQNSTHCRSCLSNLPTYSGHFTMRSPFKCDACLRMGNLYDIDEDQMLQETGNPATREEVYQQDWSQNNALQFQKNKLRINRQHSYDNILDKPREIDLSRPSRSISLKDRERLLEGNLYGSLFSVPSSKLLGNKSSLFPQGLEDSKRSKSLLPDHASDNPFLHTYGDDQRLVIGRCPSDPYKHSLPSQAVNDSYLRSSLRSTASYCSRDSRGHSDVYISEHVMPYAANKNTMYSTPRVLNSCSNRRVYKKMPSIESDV
compound,measurement,setting,value
"CC(=O)[C@H]1CC[C@H]2[C@@H]3CC[C@@H]4C[C@H](OS(=O)(=O)O)CC[C@]4(C)[C@H]3CC[C@]12C [3α5βS, 3α5β-pregnanolone sulfate]",3α5βS Emax,NR1011/NR2A [1]; splice variant 011 /NR2A,−0.86 ± 0.04
same,3α5βS nHill,NR1011/NR2A [1]; splice variant 011 /NR2A,0.96 ± 0.06
same,maximum extent of inhibition by 3α5βS,NR1100/NR2A; NR1100/NR2A,99±3%
same,3α5βS Emax,NR1100/NR2A; splice variant 100 /NR2A,−0.99 ± 0.03
same,3α5βS nHill,NR1100/NR2A; splice variant 100 /NR2A,0.83 ± 0.02
same,Percentage change in kainate response,GluR1 AMPA receptor,−47 ± 12(3) %
same,EC50,NR1100 NMDA receptor,57 µM
same,3α5βS nH,NR1/NR2B (NR1100),1.06 ± 0.04
same,maximum extent of inhibition by 3α5βS,NR1111/NR2A; NR1111/NR2A,75±7%
same,3α5βS Emax,NR1111/NR2A; splice variant 111 /NR2A,−0.75 ± 0.07
same,3α5βS nHill,NR1111/NR2A; splice variant 111 /NR2A,1.09 ± 0.9
same,Percentage change in kainate response,GluR6 kainate receptor,−34 ± 5(7) %
same,3α5βS Emax,NR1000/NR2A; splice variant 000 /NR2A,−0.89 ± 0.01
same,3α5βS nHill,NR1000/NR2A; splice variant 000 /NR2A,0.98 ± .03
same,inhibition at 100 µM,"NR1011/NR2A [2]; pH 7.5, read-out: percentage inhibition of the maximum NMDA response",56%
pregnenolone sulfate [PS],Maximum potentiation of NMDA-induced current by PS,NR1011/NR2A [1]; NR1011/NR2A,2.14±0.17 fold
same,PS Emax,NR1011/NR2A [1]; NR1011/NR2A,1.14 ± 0.17
same,PS nHill,NR1011/NR2A [1]; NR1011/NR2A,1.18 ± 0.18
same,Maximum potentiation of NMDA-induced current by PS,NR1100/NR2A; NR1100/NR2A,1.67±0.07 fold
same,PS Emax,NR1100/NR2A; NR1100/NR2A,0.67 ± 0.07
same,PS nHill,NR1100/NR2A; NR1100/NR2A,1.33 ± 0.08
same,"PS Emax, percentage change in kainate-induced current","GluR1 AMPA receptor; GluR1, 100 μM kainate",−99%
same,inhibition of kainate response,"GluR1 AMPA receptor; GluR1, 200 μM PS",85±4%
same,reduction of kainate Imax,"GluR1 AMPA receptor; GluR1, PS 100 μM",83%
same,inhibition of the response to kainate,"GluR1 AMPA receptor; GluR1, steroid 100 μM",over 70%
same,Percentage change in kainate response,"GluR1 AMPA receptor; GluR1, steroid 100 μM, 100 μM kainate, −100 mV",−85 ± 1(8) %
same,maximum potentiation of NMDA induced current,NR1100 NMDA receptor; NR1100 cRNA only,114%
same,steroid Emax (NMDA-induced current relative to control),"NR1100 NMDA receptor; NR1100 cRNA only, 300 μM NMDA",2.14
same,PS nH,NR1/NR2B (NR1100),1.42 ± 0.11
same,enhancement of NMDA-induced current,"NR1/NR2B (NR1100); 100 μM PS, […] μM NMDA",78±9%
same,PS Emax (% Change),"NR1/NR2B (NR1100); […] μM NMDA, 10 μM glycine",+202 ± 10%
same,Maximum potentiation of NMDA-induced current by PS,NR1111/NR2A; NR1111/NR2A,1.51±0.04 fold
same,PS nHill,NR1111/NR2A; NR1111/NR2A,1.28 ± 0.19
same,PS Emax,"NR1111/NR2A; NR1111/NR2A, curve 1+Emax/(1+(EC50/c)n)",0.51 ± 0.04
same,"PS nH, inhibition of kainate-induced current","GluR6 kainate receptor; GluR6, 10 μM kainate",0.29
same,inhibition of kainate response,"GluR6 kainate receptor; GluR6, 500 μM PS",64±2%
same,reduction of kainate Imax,"GluR6 kainate receptor; GluR6, PS 100 μM",33%
same,inhibition of the response to kainate,"GluR6 kainate receptor; GluR6, steroid 100 μM",42%
same,Percentage change in kainate response,"GluR6 kainate receptor; GluR6, steroid 100 μM, 10 μM kainate, −100 mV",−42 ± 3(8) %
same,Maximum potentiation of NMDA-induced current by PS,NR1000/NR2A; NR1000/NR2A,2.14±0.08 fold
same,PS Emax,NR1000/NR2A; NR1000/NR2A,1.14 ± 0.08
same,PS nHill,NR1000/NR2A; NR1000/NR2A,1.31 ± 0.06
same,maximum relative current (MRC),"NR1011/NR2A [2]; 100 μM PS, 200 μM NMDA+10 μM glycine, pH 7.5",1.41
same,maximum relative current (MRC),"NR1011/NR2A [2]; 100 μM PS, pH 6.5",2.24
same,percentage potentiation of the maximum NMDA response,"NR1011/NR2A [2]; 100 μM PS, pH 7.5",50%
same,maximum relative current (MRC),"NR1011/NR2A [2]; 100 μM PS, pH 8.5",1.35
same,percentage potentiation of the maximum NMDA response,"NR1011/NR2A [2]; 100 μM PS, pH 8.5",24%
same,difference in mrc between pH=6.5 and pH=7.5,"NR1011/NR2A [2]; NR1011/NR2A, 100 μM PS",1.7 fold
"CN[C@H](CC(=O)O)C(=O)O [NMDA, N-methyl-D-aspartate]",agonist Emax,"NR1011/NR2A [1]; NR1011/NR2A, absence of PS",1.14 ± 0.02
same,agonist nHill,"NR1011/NR2A [1]; NR1011/NR2A, absence of PS",1.39 ± 0.07
same,agonist nHill,"NR1011/NR2A [1]; NR1011/NR2A, presence of 100 mM PS",1.11 ± 0.12
same,agonist Emax,"NR1011/NR2A [1]; NR1011/NR2A, presence of PS",(1.68 ± 0.06)
same,agonist Emax,"NR1100/NR2A; NR1100/NR2A, absence of PS",1.36 ± 0.04
same,agonist nHill,"NR1100/NR2A; NR1100/NR2A, absence of PS",1.13 ± 0.04
same,agonist Emax,"NR1100/NR2A; NR1100/NR2A, presence",(1.60 ± 0.07
same,agonist nHill,"NR1100/NR2A; NR1100/NR2A, presence",1.20 ± 0.06
same,agonist Emax,NR1/NR2B (NR1100); +100 μM PS,1.47
same,agonist nH,NR1/NR2B (NR1100); +100 μM PS,1.32 ± 0.11
same,agonist Emax,NR1/NR2B (NR1100); no PS,1.00 ± 0.02
same,agonist nH,NR1/NR2B (NR1100); no PS,1.28 ± 0.08
same,EC50,"NR1/NR2B (NR1100); read-out: agonist EC50, +100 μM PS",12 µM
same,agonist Emax,"NR1111/NR2A; NR1111/NR2A, absence of PS",1.34 ± 0.09
same,agonist nHill,"NR1111/NR2A; NR1111/NR2A, absence of PS",1.49 ± 0.02
same,agonist nHill,"NR1111/NR2A; NR1111/NR2A, presence of 100 mM PS",1.33 ± 0.22
same,agonist Emax,"NR1111/NR2A; NR1111/NR2A, presence of PS",(2.27 ± 0.07)
same,agonist Emax,"NR1000/NR2A; NR1000/NR2A, absence of PS",1.20 ± 0.05
same,agonist nHill,"NR1000/NR2A; NR1000/NR2A, absence of PS",1.31 ± 0.08
same,agonist nHill,"NR1000/NR2A; NR1000/NR2A, presence of 100 mM PS",1.18 ± 0.05
same,agonist Emax,"NR1000/NR2A; NR1000/NR2A, presence of PS",(1.55 ± 0.04)
same,NMDA nH,"NR1011/NR2A [2]; pH 7.5, +100 μM 3α5βS",1.35
same,NMDA nH,"NR1011/NR2A [2]; pH 7.5, +100 μM PS",1.24
same,NMDA nH,"NR1011/NR2A [2]; pH 7.5, control",1.47
same,NMDA nH,"NR1011/NR2A [2]; pH 8.5, +100 μM PS",1.44
same,NMDA nH,"NR1011/NR2A [2]; pH 8.5, control",1.62
same,EC50,"NR1011/NR2A [2]; pH 7.5, +100 μM 3α5βS",120 µM
same,EC50,"NR1011/NR2A [2]; pH 7.5, +100 μM PS",67 µM
same,EC50,"NR1011/NR2A [2]; pH 7.5, control, 10 μM glycine",71 µM
same,EC50,"NR1011/NR2A [2]; pH 8.5, +100 μM PS",58 µM
same,EC50,"NR1011/NR2A [2]; pH 8.5, control",94 µM
